Laboratory results: patent publication US20090010979A1, “Method of Controlling Termites” (BAYER CROPSCIENCE LP, priority 2004, published 2009)

Experiment: Arrestant composition on silica with Premise 75WP distributed in soil: movement of components
Type: physicochemical
Conditions: after several months
Description: (A) Preparation of the arrestant composition: A mixture of 5-methylpentacosane, 11-methylpentacosane, 9-Z-pentacosene, n-pentacosane, and n-hexamethylcosane in proportion of about 11.4:36.3:19.6:27.7:5.0 as a 0.06% (by weight) solution in acetone (0.06 g) was diluted into acetone and mixed with 149.4 g of Zeolex® 7A brand silica (J.M. Huber, Inc. USA) The acetone was removed by evaporation at 50° C. at 3.5 mm Hg to provide a smooth flowable powder. The powder was mixed with 850 g of Premise® 75WP (imidacloprid active ingredient), and milled to a consistent appearance.
(B) Use of the Arrestant Composition of Part (A): The final product is distributed in soil.

Structure (SMILES): O=[N+]([O-])NC1=NCCN1Cc1ccc(Cl)nc1 [imidacloprid]
- movement in soil: moves downward
